Assay results published in US20100130607A1, “NEUROPROTECTION IN DEMYELINATING DISEASES” (priority 2007, published 2010).
Entries after “also recorded” stand apart in the source; their conditions may differ. Structures can show the parent of a compound that is named as a salt.

Key:
MOG-EAE in C57BL/6 mice [1] = assay: Clinical course (clinical score) of active MOG-EAE; type: in vivo; details: oral, from day -20, up to 72 days p.i., vs methocel control
Description: Treatment started at day -20 before the injection of MOG. The following compounds were administered orally to three groups of mice as follows: 1) Ca-monomethyl fumarate 5 mg/kg body weight bid; 2) dimethyl fumarate 15 mg/kg body weight bid; 3) 0.08% methocel as control. For analyzing the clinical course, data was pooled from two experiments (one experiment with 6 mice and another with 8 mice per group yielding a total number of 14 mice per experimental group). Clinical evaluation-Symptoms were scored 1-10 on a daily basis as described in Linker et al., Nat. Med., 2002, […] (see also Hartung et al., Brain, 1988, 11, 1039-1059). Briefly, disease severity was scored as follows: 0, normal; 1, reduced tone of tail; 2, limp tail, impaired righting; 3, absent righting; 4, gait ataxia; 5, mild paraparesis of hindlimbs; 6, moderate paraparesis; 7, severe paraparesis or paraplegia; 8, tetraparesis; 9, moribund; 10, death. Relapses were defined as deterioration by 2 points or more within 2 days. […] Animals were pooled from two experiments (total number of 14 mice per group). Mice were followed until the late phase of the disease (72 days p.i.).

MOG-EAE in C57BL/6 mice [2] = assay: Blinded histological analysis of spinal cord in MOG-EAE, 72 days p.i.; type: in vivo; details: oral, vs methocel control; for numbers of CD 3 positive T cells infiltrating the spinal cord / numbers of Mac-3 positive macrophages and microglia infiltrating the spinal cord: 72 days after induction of MOG-EAE; for axonal loss (relative axonal density) / level of demyelination (% white matter): spinal cord, 72 days p.i.
Description: Treatment started at day -20 before the injection of MOG. The following compounds were administered orally to three groups of mice as follows: 1) Ca-monomethyl fumarate 5 mg/kg body weight bid; 2) dimethyl fumarate 15 mg/kg body weight bid; 3) 0.08% methocel as control. For analyzing the clinical course, data was pooled from two experiments (one experiment with 6 mice and another with 8 mice per group yielding a total number of 14 mice per experimental group). Histology-One experiment was terminated on day 72 p.i. for histologic evaluation. At that time point, 6 mice in the MMF and 6 mice in the control group were available for analysis. The DMF group consisted of 4 mice (2 non-EAE related drop-outs). Mice were anesthetized with ether, bled and perfused with 25 ml Ringer solution and 10 ml of 4% paraformaldehyde in buffered PBS. Spinal cord was dissected out and fixed overnight in 4% paraformaldehyde in buffered PBS at 4° C. before embedding in paraffin. Paraffin sections were stained with hematoxylin and eosin for visualization of inflammatory infiltrates and Luxol fast blue for visualization of demyelination. Coded sections from cervical, thoracic and lumbar spinal cord were evaluated by a blinded observer by means of overlaying a stereological grid and counting mean CD3 and Mac-3 positive cells within 3 visual fields (each 0.096 mm^2) with the most intense pathology under a 400-fold magnification. The extent of demyelination was assessed by relating the number of grid squares with demyelination to the total number of grid squares containing white matter over an average of 8-10 independent levels of spinal cord per mouse. CD3, Mac-3 positive cells and APP positive axons were quantified on 3 representative sections, each one of cervical, thoracic and lumbar spinal cord by counting 2 defined areas with the most intense pathology under a 40-fold magnification. Histological evaluation was performed as described in Eugster et al., Eur. J. Immunol., 1999, […].

[3] = Ca-monomethyl fumarate 5 mg/kg bid

Compound | clinical score / disease course (MOG-EAE in C57BL/6 mice [1]; dimethyl fumarate 15 mg/kg body weight bid) | numbers of CD 3 positive T cells infiltrating the spinal cord (MOG-EAE in C57BL/6 mice [2]; dimethyl fumarate 15 mg/kg bid) | numbers of Mac-3 positive macrophages and microglia infiltrating the spinal cord (MOG-EAE in C57BL/6 mice [2]; dimethyl fumarate 15 mg/kg bid) | axonal loss (relative axonal density) (MOG-EAE in C57BL/6 mice [2]; dimethyl fumarate 15 mg/kg bid) | level of demyelination (% white matter) (MOG-EAE in C57BL/6 mice [2]; dimethyl fumarate 15 mg/kg bid) | clinical score / disease course (MOG-EAE in C57BL/6 mice [1]; Ca-monomethyl fumarate 5 mg/kg body weight bid) | numbers of CD 3 positive T cells infiltrating the spinal cord (MOG-EAE in C57BL/6 mice [2]; [3]) | numbers of Mac-3 positive macrophages and microglia infiltrating the spinal cord (MOG-EAE in C57BL/6 mice [2]; [3]) | axonal loss (relative axonal density) (MOG-EAE in C57BL/6 mice [2]; [3]) | level of demyelination (% white matter) (MOG-EAE in C57BL/6 mice [2]; [3])
COC(=O)/C=C/C(=O)OC [DMF, dimethyl fumarate, reference compound] | significantly milder disease course; also recorded: effective to reduce the clinical score up to 72 days p.i | not significantly different | not significantly different | reduced | reduced | – | – | – | – | –
COC(=O)/C=C/C(=O)O [MMF, Ca-monomethyl fumarate] | – | – | – | – | – | not sufficient to significantly affect the clinical score | not significantly different | not significantly different | reduced demyelination and axonal loss | reduced demyelination and axonal loss
